Measured values: patent US5326766A, “4-(2-(4-(2-pyridinyloxy)phenyl)ethoxy)quinazoline and analogues thereof” (priority 1992, dated 1994)

Experiments:
[1] = system: German cockroach (Blattella germanicus); assay: whole plant or invertebrate; format: in vivo; settings: 240 h, ten days, read-out: GECR activity (rated on live and dead insects)
Experimental: (§1) The compounds identified in Table I were tested for miticidal and insecticidal activity against eight species. The following abbreviations are used in the Table III:
GECR refers to German cockroach
(§2) In conducting evaluations of insecticidal activity, each test compound was formulated as a 400 ppm solution, and this solution was then diluted with water to give lesser concentrations. The 400 ppm solution was prepared by combining 19.2 mL of 0.05% solution of Tween 20 (polyoxyethylene (20) sorbitan monolaurate) in water with a solution of 8 mg of the compound in 0.8 mL of acetone/EtOH (9/1).
Activity against German cockroach (Blattella germanicus) was evaluated as follows. 8 mL of alfalfa based green insect diet material was dispensed into a one ounce diet cup. The cups were then sprayed with formulated material through a flat-fan nozzle. The test was run using concentrations of 400 ppm and 50 ppm. Treated cups were air dried for 24 hours and infested with five late third or early fourth instar German cockroaches. The cups were capped and held for ten days in an environmental growth chamber at a temperature of […]. Activity was then rated based on the total number of live and dead insects.

[2] = system: Pyricularia oryzae (rice blast); assay: whole plant or invertebrate; format: in vivo; settings: Pyricularia oryzae, foliar, read-out: PYRIOR disease control, host rice; foliar spray; 400 ppm (+++: 100 ppm)
[3] = system: aster leafhopper (Macrosteles fascifrons); assay: whole plant or invertebrate; format: in vivo; settings: Macrosteles fascifrons, 24 h, read-out: ALH percent mortality
Experimental: as §1
ALH refers to aster leafhopper
as §2
Activity against aster leafhopper (Macrosteles fascifrons) was tested as follows. The test was run using concentrations of 400 ppm and 50 ppm. One ounce plastic cups containing a cotton wick was sprayed with 0.4 mL of formulated material using a flat-fan nozzle. The excess moisture was allowed to evaporate. Then five to ten carbon dioxide anesthetized adult leafhoppers were added to each cup. The cups were capped and held at room temperature for 24 hours. Percent mortality was then determined.

[4] = system: Leptosphaeria nodorum (glume blotch); assay: Foliar spray fungicide test, Leptosphaeria nodorum (glume blotch) on wheat; settings: Parastagonospora nodorum, in Triticum aestivum, foliar, read-out: LETPNO disease control, host wheat, 400 ppm (+++: 100 ppm)
Experimental: (§3) The test compounds were formulated for application by dissolving 50 mg of the compound into 1.25 ml of solvent. The solvent was prepared by mixing 50 ml of "Tween 20" (polyoxyethylene (20) sorbitan monolaurate emulsifier) with 475 ml of acetone and 475 ml of ethanol. The solvent/compound solution was diluted to 125 ml with deionized water. The resulting formulation contains 400 ppm test chemical. Lower concentrations were obtained by serial dilution with the solvent-surfactant mixture.
(§4) The formulated test compounds were applied by foliar spray.
(§5) The formulated technical compounds were sprayed on all foliar surfaces of the host plants to past run-off. Single pots of each host plant were placed on raised, revolving pedestals in a fume hood. Test solutions were sprayed on all foliar surfaces. All treatments were allowed to dry and the plants were inoculated with the appropriate pathogens within 24 hours.
(§6) The effectiveness of test compounds in controlling disease was rated using the following scale.

[5] = system: Puccinia recondita tritici (leaf rust); assay: Foliar spray fungicide test, Puccinia recondita tritici (leaf rust) on wheat; settings: Puccinia recondita, in Triticum aestivum, foliar, read-out: PUCCRT disease control, host wheat, 400 ppm (+++: 100 ppm)
Experimental: as §3
(§7) The formulated test compounds were applied by foliar spray. The following plant pathogens and their corresponding plants were employed.
Puccinia recondita PUCCRT wheat
as §5, §6

[6] = system: beet armyworm (Spodoptera exiqua); assay: Activity against beet armyworm; format: in vivo; settings: Spodoptera, 144 h, 6 days, read-out: BAW activity (rated on live and dead larvae and size of live larvae)
Experimental: as §1
BAW refers to beet armyworm
as §2
Activity against beet armyworm (Spodoptera exiqua) was evaluated as follows. The test is run using concentrations of 400 ppm and 50 ppm. A general purpose lepidoptera artificial diet was diluted to half strength with a 5% non nutritive agar. 8 mL of this diet material was dispensed into one ounce diet cups. One hour prior to treatment, 35 to 40 eggs were dispensed onto the diet surface. The cups were then sprayed with formulated material through a flat-fan nozzle. Treated cups were air dried prior to sealing with plastic caps. The cups were held for 6 days at room temperature. Activity was then rated based on the total number of live and dead larvae, and on the size of live larvae.

[7] = system: Plasmopara viticola (downy mildew); assay: Foliar spray fungicide test, Plasmopara viticola (downy mildew) on grape; settings: for pest or weed control at 400 µg/mL: Plasmopara viticola, foliar, read-out: PLASVI disease control
Experimental: as §3, §4, §5, §6

[8] = system: Erysiphe graminis tritici (powdery mildew); assay: Foliar spray fungicide test, Erysiphe graminis tritici (powdery mildew) on wheat; settings: Blumeria graminis, in Triticum aestivum, foliar, read-out: ERYSGT disease control, host wheat, 400 ppm (+++: 100 ppm)
Experimental: as §3, §7, §5, §6

[9] = system: tobacco budworm (Heliothis virescens); assay: Activity against tobacco budworm; format: in vivo; settings: Heliothis virescens, 144 h, 6 days, read-out: TBW activity (rated on live and dead larvae and size of live larvae)
Experimental: as §1
TBW refers to tobacco budworm
as §2
Activity against tobacco budworm (Heliothis virescens) was evaluated as follows. A general purpose lepidoptera artificial diet was diluted to half strength with a 5% non nutritive agar. 8 mL of this diet material was dispensed into each one ounce diet cup. One hour prior to treatment 18 to 20 eggs were dispensed onto the diet surface. The cups were then sprayed with formulated material through a flat-fan nozzle. The test was run using concentrations of 400 ppm and 50 ppm. Treated cups were air dried prior to sealing with plastic caps. The cups were held for 6 days at room temperature. Activity was then rated based on the total number of live and dead larvae, and on the size of live larvae.

[10] = system: Southern corn rootworm (Diabrotica undecimpuctata howardi Barber); assay: whole plant or invertebrate; format: in vivo; settings: 400 ppm, soil concentration of 24 ppm, 3-4 days, read-out: SCRW mortality
Experimental: as §1
SCRW refers to southern corn rootworm
as §2
Activity on Southern corn rootworm (Diabrotica undecimpuctata howardi Barber) was evaluated by adding one mL of test solution containing a predetermined concentration of test compound to a cup containing a kernel of corn in 16 g of sterile soil. This produces a soil concentration of 24 ppm. After 1.5 to 2 hours of drying, five 4th instar corn rootworm larvae were added to the individual cups. Mortality was measured at 3-4 days by emptying the cup onto a pan and inspecting the soil for live rootworms.

[11] = system: cotton aphid (Aphis gossypii); assay: whole plant or invertebrate; settings: 72 h; for mortality at 50 ppm: read-out: CA activity (percent based on aphids present in plants sprayed with solvent alone), 50 ppm, squash plants, three days after treatment; for mortality at 400 ppm: read-out: CA activity (percent based on aphids present in plants sprayed with solvent alone), 400 ppm, squash plants, three days after treatment
[12] = system: two spotted spider mite (Tetranychus urticae); assay: whole plant or invertebrate; settings: 72 h; for mortality at 50 ppm: read-out: TSSM activity (percent based on mites present in plants sprayed with solvent alone), 50 ppm, squash plants, three days after treatment; for mortality at 400 ppm: read-out: TSSM activity (percent based on mites present in plants sprayed with solvent alone), 400 ppm, squash plants, three days after treatment

SMILES | mortality at 50 ppm [1] | mortality at 400 ppm [1] | pest or weed control at 400 µg/mL [2] | mortality at 50 ppm [3] | mortality at 400 ppm [3] | pest or weed control at 400 µg/mL [4] | pest or weed control at 400 µg/mL [5] | pest or weed control at 50 ppm [6] | pest or weed control at 400 ppm [6] | pest or weed control at 400 µg/mL [7] | pest or weed control at 400 µg/mL [8] | pest or weed control at 50 ppm [9] | pest or weed control at 400 ppm [9] | mortality at 24 ppm [10] | mortality at 50 ppm [11] | mortality at 400 ppm [11] | mortality at 50 ppm [12] | mortality at 400 ppm [12] | PLASVI disease control ([7]; host grape, foliar spray, 400 ppm (+++: 100 ppm))
Fc1cccc2c(NCCc3ccc(Oc4ncc(C(F)(F)F)cc4Cl)cc3)ncnc12 [Compound 1] | 0% | 20% | 90 to 100% | 100% | 100% | 90 to 100% | 90 to 100% | 100% | 100% | 90 to 100% | 90 to 100% | 100% | 0% | 80% | 0% | 0% | 0% | 0% | 
Fc1cc(C(F)(F)F)cnc1Oc1ccc(CCOc2ncnc3c(F)cccc23)cc1 [Compound 5] |  | 100% | 90 to 100% |  | 100% | 0 to 19% | 90 to 100% |  | 100% | 90 to 100% | 90 to 100% |  | 100% | 100% |  | 100% |  | 100% | 
Fc1cc(C(F)(F)F)cnc1Oc1ccc(CCNc2ncnc3c(F)cccc23)cc1 [Compound 6] | 40% | 20% | 90 to 100% | 100% | 100% | 90 to 100% | 90 to 100% | 100% | 100% | 90 to 100% | 90 to 100% | 100% | 100% | 0% | 0% | 0% | 0% | 0% | 
Fc1cc(C(F)(F)F)cnc1Oc1ccc(CCOc2ncnc3cccc(F)c23)cc1 [Compound 7] | 0% | 0% | 0 to 19% | 100% | 80% | 0 to 19% | 0 to 19% | 100% | 100% | 0 to 19% | 0 to 19% | 100% | 100% | 0% | 100% | 100% | 100% | 100% | 
FC(F)(F)c1ccnc(Oc2ccc(CCOc3ncnc4ccccc34)cc2)c1 [Compound 13] |  |  | 20 to 89% |  | 100% | 90 to 100% | 90 to 100% |  | 100% | 90 to 100% | 90 to 100% |  | 100% |  |  | 100% |  | 100% | 
Fc1cccc2c(OCCc3ccc(Oc4cccc(OCC(F)(F)F)n4)cc3)ncnc12 [Compound 33] |  |  | 20 to 89% |  |  | 0 to 19% | 90 to 100% |  |  | 90 to 100% | 90 to 100% |  |  |  |  |  |  |  | 
Fc1cccc2c(OCCc3ccc(Oc4cccc(C(F)(F)F)n4)cc3)ncnc12 [Compound 36] |  |  | 90 to 100% |  |  | 20 to 89% | 90 to 100% |  |  | 90 to 100% | 90 to 100% |  |  |  |  |  |  |  | 
Fc1cccc2c(NCCc3ccc(Oc4cccc(C(F)(F)F)n4)cc3)ncnc12 [Compound 37] |  |  | 20 to 89% |  |  | 90 to 100% | 90 to 100% |  |  | 90 to 100% | 90 to 100% |  |  |  |  |  |  |  | 
Fc1cccc2c(NCCc3ccc(Oc4cccc(C(F)(F)F)n4)cc3)ccnc12 [Compound 40, 8-Fluoro-4-(2-(4-(6-(trifluoromethyl)-2-pyridinyloxy)phenyl)ethylamino)quinoline] |  |  | 20 to 89% |  |  | 20 to 89% | 90 to 100% |  |  | 90 to 100% | 90 to 100% |  |  |  |  |  |  |  | 
Fc1cccc2c(OCCc3ccc(Oc4ncc(Cl)cc4Cl)cc3)ncnc12 [Compound 41] |  |  | 90 to 100% |  | 100% | 20 to 89% | 90 to 100% |  | 100% |  | 90 to 100% |  | 100% |  |  | 100% |  | 100% | ++ +
Fc1cccc2ncnc(OCCc3ccc(Oc4nc(Cl)c(Cl)cc4Cl)cc3)c12 [Compound 43] | 0% | 0% | 0 to 19% | 0% | 0% | 0 to 19% | 0 to 19% | 0% | 0% |  | 0 to 19% | 0% | 0% | 0% | 0% | 0% | 0% | 0% | 
Brc1cnc(Oc2ccc(CCOc3ncnc4ccccc34)cc2)nc1 [Compound 46] |  |  | 0 to 19% |  |  | 20 to 89% | 20 to 89% |  |  | 0 to 19% | 20 to 89% |  |  |  |  |  |  |  | 
Clc1ccc(Oc2ccc(CCOc3ncnc4ccccc34)cc2)nn1 [Compound 49] |  |  | 0 to 19% |  |  | 0 to 19% | 20 to 89% |  |  | 90 to 100% | 20 to 89% |  |  |  |  |  |  |  | 
